From patent EP0014434A1, “Right-turning basic derivative of 9,10-ethanoanthracene, process for its preparation and pharmaceutical preparations containing it” (priority 1979, dated 1980)

How the values were obtained:
[1] = system: endogenen Konzentrationen von Noradrenalin im Rattenhirn; assay: Endogenous noradrenaline concentration in rat brain; assay type: in vivo, Ratte; conditions: no influence up to this dose, p.o. for Formel I (Hydrochlorid)
[2] = system: endogenen Konzentrationen von Dopamin im Rattenhirn; assay: Endogenous dopamine concentration in rat brain; assay type: in vivo, Ratte; conditions: no influence up to this dose, p.o. for Formel I (Hydrochlorid)
[3] = system: durch 2 mg/kg sc. Reserpin induzierte Ptosis; assay: Antagonism of reserpine-induced ptosis; assay type: in vivo, männlichen Ratten
Procedure: (§1) Das S-(+)-o-[Methylamino)methyl]-9,10-äthanoan- thracen-9(10H)-äthanol und seine Säureadditionssalze besitzen wertvolle pharmakologische Eigenschaften. Vor allem zeigen sie sehr starke Wirkungen in Tests, die für Antidepressiva charakteristisch sind. Eine deutliche Antagonisierung der durch 2 mg/kg sc. Reserpin induzierten Hypothermie an männlichen Mäusen [Askew, Life Sci. 10, 725 (1963),und Benz und Waser, Dissertation 1971, Pharmakolog. […] Die durch 2 mg/kg sc. Reserpin induzierte Ptosis an männlichen Ratten [Rubin et al, J. Pharmacol. Exp. Therap.

[4] = system: Noradrenalin- Aufnahme ins Rattenherz; assay: Inhibition of noradrenaline uptake into rat heart (method of Maitre, Staehelin and Bein); assay type: in vivo, Ratte; conditions: po, Formel I tested as Hydrochlorid, read-out: ED50 Hemmung der Noradrenalin- Aufnahme ins Rattenherz
Procedure: Neurobiochemisch zeigt das Hydrochlorid der Verbindung der Formel I eine starke Hemmung der Noradrenalin- Aufnahme ins Rattenherz gemäss der Methode von L. Maitre, M. Staehelin und H. Bein, Biochem. Pharmacol. 20, 2169 (1971) mit einer ED50 von etwa 0,3 mg/kg p.o., während die ED50 des entsprechenden Racemats bei etwa 1,5 mg/kg p.o. liegt, wie auch eine starke Hemmung des Noradrenalindepletierenden Effektes von H 77/77 (3-Hydroxy-4,a-dimethyl- phenäthylamin) im Rattenhirn als indirekte Anzeige der Noradrenalin-Aufnahme-Hemmung [A. Carlsson, H. Corrodi, K. Fuxe und T. Hoefkelt, Europ. J. Pharmacol. 5, 367 (1969)] mit einer ED50 von etwa 2 mg/kg p.o., gegenüber einer ED50 von etwa 10 mg/kg p.o. des entsprechenden Racemats. Die endogenen Konzentrationen von Noradrenalin und von Dopamin im Rattenhirn, gemessen nach P. Waldmeier, de Herdt und L. Maitre [Chir. Chem. 20, 81, (1974)] werden weder vom Hydrochlorid der Verbindung der Formel I in Dosen bis 100 mg/kg bzw. bis 30 mg/kg p.o., noch vom entsprechenden Racemat in Dosen bis 10 mg/kg bzw. bis 100 mg/kg beeinflusst.

[5] = system: Noradrenalindepletierenden Effektes von H 77/77 (3-Hydroxy-4,a-dimethyl- phenäthylamin) im Rattenhirn; assay: Inhibition of the noradrenaline-depleting effect of H 77/77 in rat brain (indirect measure of noradrenaline uptake inhibition); assay type: in vivo, Ratte; conditions: po, Formel I tested as Hydrochlorid, read-out: ED50 Hemmung des Noradrenalindepletierenden Effektes von H 77/77 im Rattenhirn
[6] = system: isolierten rechten Vorhof; design: species or system Meerschweinchen
[7] = system: durch Tetrabenazin induzierten Katalepsie der Ratte; assay: Antagonism of tetrabenazine-induced catalepsy; assay type: in vivo; conditions: rat; oral administration; Hydrochlorid compared with Racemat
Text: (§2) Therap. 125, 28-34 (1959)], während bei der Antagonisierung der durch Tetrabenazin induzierten Katalepsie der Ratte nach oraler Verabreichung, und bei der Potenzierung der durch G 29 505 [2-(4-Allyl-2-methoxyphenoxy)-N,N-diäthyl-acetamid] bewirkten Narkose der Maus [W. Theobald und R. Domenjoz, Arzneimittelforsch.

[8] = system: durch G 29 505 [2-(4-Allyl-2-methoxyphenoxy)-N,N-diäthyl-acetamid] bewirkten Narkose der Maus; assay: Potentiation of G 29 505-induced narcosis; assay type: in vivo; conditions: mouse; intraperitoneal administration; Hydrochlorid compared with Racemat
Text: as §2

Acute toxicity = assay type: in vivo
[9] = system: exploratorischen Aktivität der Maus; assay: Exploratory activity; assay type: in vivo; conditions: mouse; equal doses of Formel I (tested as Hydrochlorid) and Racemat
[10] = system: durch Fuss-Schock induzierten Kampfreaktion der Maus; assay: Foot-shock induced fighting reaction; assay type: in vivo; conditions: mouse; equal doses of Formel I (tested as Hydrochlorid) and Racemat
Text: as §2

Histamin-Toxizität = assay: Antagonism of histamine toxicity; assay type: in vivo, Meerschweinchen; conditions: guinea pig; equal doses of Formel I (tested as Hydrochlorid) and Racemat
Text: as §2

[11] = system: durch 2 mg/kg sc. Reserpin induzierten Hypothermie; assay: Antagonism of reserpine-induced hypothermia; assay type: in vivo, männlichen Mäusen; conditions: male mice, Hydrochlorid compared with the corresponding Racemat
Procedure: as §1

Row | Structure (SMILES) | Dosen, bis zu denen die endogene Konzentration von Noradrenalin im Rattenhirn nicht beeinflusst wird [1] [mg/kg] | Dosen, bis zu denen die endogene Konzentration von Dopamin im Rattenhirn nicht beeinflusst wird [2] [mg/kg] | Dosierung, die die Reserpin induzierte Ptosis völlig aufhebt ([3]; male rats, relative to 0,3 mg/kg p.o. of the Hydrochlorid of Formel I) | ED50 [4] [mg/kg] | ED50 [5] [mg/kg] | negativ chronotrope Wirkung, Vergleich mit Racemat [6] | Antagonisierung der durch Tetrabenazin induzierten Katalepsie, Vergleich mit Racemat [7] | Reserpin induzierte Ptosis ([3]; male rats, 0,3 mg/kg p.o. of the Hydrochlorid) | Reserpin induzierte Ptosis ([3]; male rats, O,1 mg/kg p.o. of the Hydrochlorid) | Potenzierung der durch G 29 505 bewirkten Narkose, Vergleich mit Racemat [8] | akute Toxizität, Vergleich mit Racemat (Acute toxicity; intravenous administration) | akute Toxizität, Vergleich mit Racemat (Acute toxicity; oral administration) | exploratorische Aktivität, Vergleich mit Racemat [9] | durch Fuss-Schock induzierte Kampfreaktion, Vergleich mit Racemat [10] | Antagonisierung der Histamin-Toxizität, Vergleich mit Racemat (Histamin-Toxizität) | Antagonisierung der Reserpin induzierten Hypothermie, Vergleich mit Racemat [11]
1 | CNCC(O)CC12CCC(c3ccccc31)c1ccccc12 (racemic) [Racemat, a-[(Methylamino)methyl]-9,10-äthanoanthracen-9(10H)-äthanol, reference compound] | ≤ 10 | ≤ 100 | erheblich höheren Dosierung | ~1.5 | ~10 | – | – | – | – | – | – | – | – | – | – | –
2 | CNC[C@@H](O)CC12CCC(c3ccccc31)c1ccccc12 [Verbindung der Formel I, S-(+)-a-[(Methylamino)methyl]-9,10-äthanoanthracen-9(10H)-äthanol] | ≤ 100 | ≤ 30 | – | ~0.3 | ~2 | schwächer | in ungefähr der halben Dosierung gleich wirksam | aufgehoben | deutlich vermindert | in ungefähr der halben Dosierung gleich wirksam | ungefähr gleich | ungefähr gleich | ungefähr dieselben Wirkungen | ungefähr dieselben Wirkungen | ungefähr dieselben Wirkungen | stärker als die Wirkung von mehrfachen Dosen des entsprechenden Racemats
